Structures can show the parent of a compound that is named as a salt.
System: cloned mammalian (mSlo or hSlo) BK channels heterologously expressed in Xenopus oocytes
Test: BK-mediated outward current in Xenopus oocytes, two-electrode voltage clamp
Type: cell-based
Conditions: 10 μM, at least 5 oocytes, steps from -60 mV to +140 mV
Protocol: (§1) The ability of the compound of Formula IV to open BK channels and increase whole-cell outward (K^+) BK-mediated currents was assessed under voltage-clamp conditions by determining their ability to increase cloned mammalian (mSlo or hSlo) BK-mediated outward current heterologously expressed in Xenopus oocytes [Butler, A., et al., Science, 261, pp. 221–224 (1993); and Dworetzky, S. I., et al., Mol. Brain Res., 27, pp. 189–193 (1994)]. The two BK constructs employed represent nearly structurally identical homologous proteins, and have proven to be pharmacologically identical in our tests. To isolate BK current from native (background, non-BK) current, the specific and potent BK channel-blocking toxin iberiotoxin (IBTX) [Galvez, A., et al., J. Biol. Chem, 265, pp. 11083–11090 (1990)] was employed at a supramaximal concentration (50 nM). The relative contribution of BK channels current to total outward current was determined by subtraction of the current remaining in the presence of IBTX (non-BK current) from the current profiles obtained in all other experimental conditions (control, drug, and wash). […] The compound of Formula IV was shown in at least 5 oocytes at a concentration of 10 μM to increase BK current to 170% of control of IBTX-sensitive current. […]

Row | SMILES | increase BK current to % of control of IBTX-sensitive current
1 | COc1ccc(Cl)cc1C1(F)C(=O)Nc2cc(C(F)(F)F)ccc21 (stereo not shown) [compound of Formula IV, 3-(5-chloro-2-methoxyphenyl)-3-fluoro-6-(trifluoromethyl)indolin-2-one] | 170 % of control

System: traumatic brain injury (TBI)
Test: not given
Conditions: rat TBI model; Cheney, et al. 2001; cited from earlier work

Row | SMILES | reductions in edema in regions adjacent to the impact zone
2 | COc1ccc(Cl)cc1[C@]1(F)C(=O)Nc2cc(C(F)(F)F)ccc21 [Compound of Formula (S)-IV, (S)-3-(5-chloro-2-methoxyphenyl)-3-fluoro-6-(trifluoromethyl)-indolin-2-one] | significant reductions in edema

System: not given
Test: not given
Conditions: cited from earlier work

Row | SMILES | aqueous solubility
3 | COc1ccc(Cl)cc1[C@]1(F)C(=O)Nc2cc(C(F)(F)F)ccc21 [Compound of Formula (S)-IV, (S)-3-(5-chloro-2-methoxyphenyl)-3-fluoro-6-(trifluoromethyl)-indolin-2-one] | low aqueous solubility

System: non-BK native currents in the oocytes
Test: Effect on non-BK native currents in oocytes (current remaining in presence of IBTX)
Type: cell-based, Xenopus
Conditions: at the tested concentration
Protocol: as §1

Row | SMILES | effect on non-BK native currents in the oocytes
4 | COc1ccc(Cl)cc1C1(F)C(=O)Nc2cc(C(F)(F)F)ccc21 (stereo not shown) [compound of Formula IV, 3-(5-chloro-2-methoxyphenyl)-3-fluoro-6-(trifluoromethyl)indolin-2-one] | did not effect non-BK native currents

System: focal cerebral ischemia (MCAO)
Test: Focal stroke model: permanent MCA/CCA occlusion, cortical infarct volume
Type: in vivo, Wistar rat
Conditions: intravenously (0.3 mg//kg) single bolus two hours after MCA occlusion; vs vehicle-treated control; measured 24 hours after MCAO
Protocol: To determine the ability of the compounds of the present invention to reduce cell loss resulting from neuronal ischemia, a standard focal cerebral ischemia is induced by permanent occlusion of the left middle cerebral artery (MCA) and common carotid artery (CCA) with one hour occlusion of the right CCA in the Wistar rat. The surgeries are performed using the sub-temporal approach of A. Tamura, et al., J. Cereb. Blood Flow Metab., 1, pp. 53–60, (1981) and its modifications [K. Osborne, et al., J. Neurol Neurosurg. Psychiatry, 50, pp. 402–410 (1987) and S. Menzies, et al., Neurosurgery, 31, pp. 100–107, (1992).]
The compound of Formula IV was evaluated in the focal stroke model involving permanent occlusion of the left MCA (MCAO) and CCA (CCAO) and temporary occlusion of the right CCA in the Wistar rat [Gribkoff, et al. Nature Med. 7, pp. 471–477 (2001)]. This procedure results in a reliably large neocortical infarct volume that is measured by means of vital dye exclusion in serial slices through the brain 24 hours after MCAO. In the present test, compounds were administered using an i.v. or i.p. route of administration two hours after occlusion.

Row | SMILES | reduction of cortical infarct volume
5 | COc1ccc(Cl)cc1C1(F)C(=O)Nc2cc(C(F)(F)F)ccc21 (stereo not shown) [compound of Formula IV, 3-(5-chloro-2-methoxyphenyl)-3-fluoro-6-(trifluoromethyl)indolin-2-one] | about 28%

System: not given
Test: not given
Conditions: not given

Row | SMILES | melting point
6 | CCN(CC)Cc1ccc(C(=O)OCN2C(=O)[C@@](F)(c3cc(Cl)ccc3OC)c3ccc(C(F)(F)F)cc32)cc1 (as salt: trifluoroacetate) [Example 27, (S)-(3-(5-chloro-2-methoxyphenyl)-3-fluoro-2-oxo-6-(trifluoromethyl)indolin-1-yl)methyl 4-((diethylamino)methyl)benzoate, trifluoroacetate] | 75 to 80 °C
7 | CCN(CC)CCN(CC)Cc1ccc(C(=O)OCN2C(=O)[C@@](F)(c3cc(Cl)ccc3OC)c3ccc(C(F)(F)F)cc32)cc1 (as salt: hydrochloride) [Example 29, (S)-(3-(5-chloro-2-methoxyphenyl)-3-fluoro-2-oxo-6-(trifluoromethyl)indolin-1-yl)methyl 4-(((2-(diethylamino)ethyl)(ethyl)amino)methyl)benzoate, hydrochloride] | 155 to 160 °C
8 | CCN(CC)CCN(CC)Cc1cccc(C(=O)OCN2C(=O)[C@@](F)(c3cc(Cl)ccc3OC)c3ccc(C(F)(F)F)cc32)c1 (as salt: hydrochloride) [Example 30, (S)-(3-(5-chloro-2-methoxyphenyl)-3-fluoro-2-oxo-6-(trifluoromethyl)indolin-1-yl)methyl 3-(((2-(diethylamino)ethyl)(ethyl)amino)methyl)benzoate, hydrochloride] | 120 to 125 °C
9 | COc1ccc(Cl)cc1[C@]1(F)C(=O)N(COC(=O)c2ccc(CN3CCOCC3)cc2)c2cc(C(F)(F)F)ccc21 (as salt: hydrochloride) [Example 23, (S)-(3-(5-chloro-2-methoxyphenyl)-3-fluoro-2-oxo-6-(trifluoromethyl)indolin-1-yl)methyl 4-(morpholinomethyl)benzoate, hydrochloride] | 174 to 178 °C
10 | COc1ccc(Cl)cc1[C@]1(F)C(=O)N(COC(=O)c2ccc(CN3CCCCC3)cc2)c2cc(C(F)(F)F)ccc21 (as salt: trifluoroacetate) [Example 31, (S)-4-Piperidin-1-ylmethyl-benzoic acid 3-(5-chloro-2-methoxy-phenyl)-3-fluoro-2-oxo-6-trifluoromethyl-2,3-dihydro-indol-1-ylmethyl ester, trifluoroacetate] | 85 to 89 °C
11 | COc1ccc(Cl)cc1[C@]1(F)C(=O)N(COC(=O)c2ccc(CN3CCN(C)CC3)cc2)c2cc(C(F)(F)F)ccc21 (as salt: hydrochloride) [Example 25] | 265 to 269 °C (dec.)
12 | COc1ccc(Cl)cc1[C@]1(F)C(=O)N(COC(=O)c2cccc(CN3CCN(C)CC3)c2)c2cc(C(F)(F)F)ccc21 (as salt: hydrochloride) [Example 26] | 190 to 193 °C (dec.)
13 | CCN(CC)Cc1cccc(C(=O)OCN2C(=O)[C@@](F)(c3cc(Cl)ccc3OC)c3ccc(C(F)(F)F)cc32)c1 (as salt: hydrochloride) [Example 28, (S)-(3-(5-chloro-2-methoxyphenyl)-3-fluoro-2-oxo-6-(trifluoromethyl)indolin-1-yl)methyl 3-((diethylamino)methyl)benzoate, hydrochloride] | 195 to 198 °C (dec.)

The remaining lines, values ahead:

Row | melting point | SMILES
14 | 98 to 102 °C | COc1ccc(Cl)cc1[C@]1(F)C(=O)N(C(=O)N[C@@H](Cc2ccccc2)C(=O)O)c2cc(C(F)(F)F)ccc21 [Example 41, (S)-2-((S)-3-(5-chloro-2-methoxyphenyl)-3-fluoro-2-oxo-6-(trifluoromethyl)-indoline-1-carboxamido)-3-phenylpropanoic acid]
15 | 90 to 94 °C | COc1ccc(Cl)cc1[C@]1(F)C(=O)N(C(=O)N[C@@H](CCC(=O)O)C(=O)O)c2cc(C(F)(F)F)ccc21 [Example 37, (S)-2-((S)-3-(5-chloro-2-methoxyphenyl)-3-fluoro-2-oxo-6-(trifluoromethyl)-indoline-1-carboxamido)pentanedioic acid]
16 | 157 to 160 °C | COc1ccc(Cl)cc1[C@]1(F)C(=O)N(COC(=O)CN(C)C)c2cc(C(F)(F)F)ccc21 (as salt: hydrochloride) [Example 14, (S)-(3-(5-chloro-2-methoxyphenyl)-3-fluoro-2-oxo-6-(trifluoromethyl)indolin-1-yl)methyl 2-(dimethylamino)acetate, hydrochloride)]
17 | 88 to 92 °C | CC[C@H](C)[C@H](NC(=O)N1C(=O)[C@@](F)(c2cc(Cl)ccc2OC)c2ccc(C(F)(F)F)cc21)C(=O)O [Example 40, (2S,3S)-2-((S)-3-(5-chloro-2-methoxyphenyl)-3-fluoro-2-oxo-6-(trifluoromethyl)indoline-1-carboxamido)-3-methylpentanoic acid]
18 | 103 to 107 °C | COc1ccc(Cl)cc1[C@]1(F)C(=O)N(C(=O)N[C@@H](C)C(=O)O)c2cc(C(F)(F)F)ccc21 [Example 35, (S)-2-((S)-3-(5-chloro-2-methoxyphenyl)-3-fluoro-2-oxo-6-(trifluoromethyl)-indoline-1-carboxamido)propanoic acid]
19 | 68 to 71 °C (dec.) | COc1ccc(Cl)cc1[C@]1(F)C(=O)N(C(=O)OCOC(=O)CCC(=O)O)c2cc(C(F)(F)F)ccc21 [Example 16, (S)-4-((3-(5-chloro-2-methoxyphenyl)-3-fluoro-2-oxo-6-(trifluoromethyl)indoline-1-carbonyloxy)methoxy)-4-oxobutanoic acid]
20 | 100 to 104 °C | COc1ccc(Cl)cc1[C@]1(F)C(=O)N(C(=O)N[C@H](C(=O)O)C(C)C)c2cc(C(F)(F)F)ccc21 [Example 39, (S)-2-((S)-3-(5-chloro-2-methoxyphenyl)-3-fluoro-2-oxo-6-(trifluoromethyl)-indoline-1-carboxamido)-3-methylbutanoic acid]
21 | 107 to 110 °C | COc1ccc(Cl)cc1[C@]1(F)C(=O)N(C(=O)NC(C)(C)C(=O)O)c2cc(C(F)(F)F)ccc21 [Example 38, (S)-2-(3-(5-chloro-2-methoxyphenyl)-3-fluoro-2-oxo-6-(trifluoromethyl)-indoline-1-carboxamido)-2-methylpropanoic acid]
22 | 72 to 76 °C | COc1ccc(Cl)cc1[C@]1(F)C(=O)N(C(=O)NCCC(=O)O)c2cc(C(F)(F)F)ccc21 [Example 42, (S)-3-(3-(5-chloro-2-methoxyphenyl)-3-fluoro-2-oxo-6-(trifluoromethyl)-indoline-1-carboxamido)propanoic acid]

Reference: US7169803B2, “N-substituted prodrugs of fluorooxindoles” (Bristol-Myers Squibb Company, priority 2004, dated 2007)
